Results taken from US8846760B2, “Dihydronaphthalene and naphthalene derivatives as N-formyl peptide receptor like-1 (FPRL-1) receptor modulators” (Allergan, Inc., priority 2011, dated 2014).

Biological target: T1, FPRL-1 (Homo sapiens, UniProt P25090)
T1 construct: expressed in transfected cells
T1 sequence (P25090 1-351): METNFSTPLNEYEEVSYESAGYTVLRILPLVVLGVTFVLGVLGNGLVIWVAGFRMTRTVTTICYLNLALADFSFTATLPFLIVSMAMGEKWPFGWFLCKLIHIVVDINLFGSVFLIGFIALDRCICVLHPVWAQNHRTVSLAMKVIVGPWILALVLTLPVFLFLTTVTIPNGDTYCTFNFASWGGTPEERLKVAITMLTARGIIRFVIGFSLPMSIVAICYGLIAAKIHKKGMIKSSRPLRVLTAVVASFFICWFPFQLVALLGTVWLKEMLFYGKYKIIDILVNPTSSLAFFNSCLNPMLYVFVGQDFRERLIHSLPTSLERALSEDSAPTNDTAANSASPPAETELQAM
Experiment: Compound-induced calcium activity on FLIPR Tetra in CHO-Gα16 cells stably expressing FPRL1
Type: cell-based
Settings: for Emax: efficacy, read-out: FPRL-1 Ga16-CHO (eff %); for EC50: tested 0.61 to 10,000 nM, read-out: FPRL-1 Ga16-CHO EC50
Protocol: CHO-Gα16 cells stably expressing FPRL1 were cultured in (F12, 10% FBS, 1% PSA, 400 μg/ml geneticin and 50 μg/ml hygromycin) and HEK-Gqi5 cells stable expressing FPR1 were cultured in (DMEM high glucose, 10% FBS, 1% PSA, 400 μg/ml geneticin and 50 μg/ml hygromycin). In general, the day before the experiment, 18,000 cells/well were plated in a 384-well clear bottom poly-d-lysine coated plate. The following day the screening compound-induced calcium activity was assayed on the FLIPR^Tetra. The drug plates were prepared in 384-well microplates using the EP3 and the MultiPROBE robotic liquid handling systems. Compounds were tested at concentrations ranging from 0.61 to 10,000 nM. Results are expressed as EC50 (nM) and efficacy values.

Compound	Emax	EC50
CC(C)c1cccc2c1CCC(C(=O)Nc1ccc(Br)cc1)=C2C(=O)O [Compound 1, 2-{[(4-Bromophenyl)amino]carbonyl}-5-isopropyl-3,4-dihydronaphthalene-1-carboxylic Acid]	80%	0.756 µM
CC(C)(C)c1ccc2c(c1)C(C(=O)O)=C(C(=O)Nc1ccc(Br)cc1)CC2 [Compound 2, 2-{[(4-Bromophenyl)amino]carbonyl}-7-tert-butyl-3,4-dihydronaphthalene-1-carboxylic acid]	86%	1.32 µM
O=C(O)C1=C(C(=O)Nc2ccc(Br)cc2)CCc2ccc(Cl)cc21 [Compound 4, 2-{[(4-Bromophenyl)amino]carbonyl}-7-chloro-3,4-dihydronaphthalene-1-carboxylic acid]	81%	0.777 µM
Cc1cc(C)c2c(c1)C(C(=O)O)=C(C(=O)Nc1ccc(Br)cc1)CC2 [Compound 7, 2-{[(4-Bromophenyl)amino]carbonyl}-5,7-dimethyl-3,4-dihydronaphthalene-1-carboxylic acid]	95%	3.92 µM
O=C(O)c1cc2ccccc2cc1C(=O)Nc1ccc(Br)cc1 [Compound 9, 3-{[(4-Bromophenyl)amino]carbonyl}-2-naphthoic acid]	92%	5.93 µM
CC1(C)CCC(C)(C)c2cc(C(=O)Nc3ccc(Br)cc3)c(C(=O)O)cc21 [Compound 10, 3-{[(4-Bromophenyl)amino]carbonyl}-5,5,8,8-tetramethyl-5,6,7,8-tetrahydronaphthalene-2-carboxylic acid]	58%	1.56 µM
O=C(Nc1ccc(Br)cc1)c1ccc2ccccc2c1C(=O)O [Compound 11, 2-{[(4-Bromophenyl)amino]carbonyl}-1-naphthoic acid]	100%	1.29 µM

These reach a lower EC50. Values come first.

Emax	EC50	Compound
95%	0.087 µM	CC1(C)CC(C(=O)Nc2ccc(Br)cc2)=C(C(=O)O)c2ccccc21 [Compound 3, 2-{[(4-Bromophenyl)amino]carbonyl}-4,4-dimethyl-3,4-dihydronaphthalene-1-carboxylic acid]
100%	0.566 µM	O=C(O)C1=C(C(=O)Nc2ccc(Br)cc2)CCc2c1cccc2-c1ccccc1 [Compound 5, 2-{[(4-Bromophenyl)amino]carbonyl}-5-phenyl-3,4-dihydronaphthalene-1-carboxylic acid]
90%	0.383 µM	O=C(O)C1=C(C(=O)Nc2ccc(Br)cc2)CCc2ccccc21 [Compound 6, 2-{[(4-Bromophenyl)amino]carbonyl}-3,4-dihydronaphthalene-1-carboxylic acid]
93%	0.198 µM	Cc1ccc(C)c2c1CCC(C(=O)Nc1ccc(Br)cc1)=C2C(=O)O [Compound 8, 2-{[(4-Bromophenyl)amino]carbonyl}-5,8-dimethyl-3,4-dihydronaphthalene-1-carboxylic acid]
95%	0.165 µM	CCc1cc(C(=O)Nc2ccc(Br)cc2)c(C(=O)O)c2ccccc12 [Compound 12, 2-{[(4-Bromophenyl)amino]carbonyl}-4-ethyl-1-naphthoic acid]
